The results in this text go back to patent US10786429B2, “Preservative removal from eye drops” (University of Florida Research Foundation, Inc., priority 2016, dated 2020).

What all share (assay type): physicochemical
Series [1] is described as follows: Partition coefficient in HEMA/MAA copolymer gels of various compositions. As for the experimental part:
Gels of […] were synthesized using 2 mL monomer solution, 2.7 mL of water, 10 μL of ethylene glycol dimethacrylate as crosslinker, and 6 mg of Darocur TPO as a photoinitiator. The monomer solution had different fractions of HEMA and MAA (i.e. 60% MAA would be 1.2 mL MAA and 0.8 mL HEMA). Gels were cured under UV light in 100 micron thick molds and subsequently cut into pieces approximately 50 mg in mass. Some gels were loaded with BAK to give a 3× (or 300 ppm) initial concentration and placed into 3 mL solution (either 0.025% Bimatoprost/PBS 1× or 0.2% BAK/PBS). The concentrations in solution were measured using UV-vis spectrophotometry. Upon achieving equilibrium, the gels were placed in 3 mL blank PBS, and release was monitored by UV-vis spectrophotometry. Uptake and release equilibrium concentrations were used to calculate partition coefficients. FIGS. 28 and 29 are plots of the partition coefficient for Bimatoprost and BAK for various gel copolymer compositions.

Series [2] in a line: Partition coefficient in macroporous pHEMA hydrogel. The note with it: for Partition coefficient: 250 mg gel in 12 mL PBS solution, 15 days, mean ± SD, n=3. On the procedure:
As indicated above, the absorption percentage of hydrophilic drug is small, whereas a significant amount of hydrophobic drug is uptake by the macroporous pHEMA gel. The high affinity of hydrophobic drug to the gel can be determined by measuring the partition coefficient of the drug in the gel. To measure the partition coefficient, a piece of macroporous pHEMA gel of 250 mg was soaked in 12 mL of drug or BAK solution. After 15 days of soaking, the concentration of the drug or BAK solution was measured by using UV-Vis spectrophotometry. The drug or BAK concentration after soaking indicated the amount of drug or BAK in reference to the initial concentration is that absorbed into the gel. The partition coefficient of timolol and dorzolamide in macroporous pHEMA gel is roughly 15 times smaller than that of BAK, which is excellent separation efficiency. In contrast, the partition coefficients of latanoprost and BAK are pretty high and the separation efficiency of the gel for this mixture is poor.

Series [3] in a line: Partition coefficient in pHEMA particles prepared using SR9035 as cross-linker. The note with it: 100 mg particles in 3.5 mL solution, 9 days. On the procedure: The partition coefficients of timolol, CMC and BAK in pHEMA particles prepared using SR9035 as cross-linker was measured. pHEMA particles (100 mg) were soaked in 3.5 mL of timolol, CMC and BAK solution, which concentration was 0.08 mg/mL, 0.5% and 2.4 mg/mL, respectively. After 9 days of soaking, the concentration of the drug or BAK solution was measured by using UV-Vis spectrophotometry. The drug or BAK concentration after soaking indicated the amount of drug or BAK that absorbed into the gel relative to the initial concentration. The partition coefficient of timolol and CMC in pHEMA particles is much smaller than that of BAK, and should have excellent separation efficiency.

Series [4] can be described thus: Langmuir adsorption isotherm fit of equilibrium interfacial surface tension of BAK solutions. The note with it: Langmuir model fit. On the procedure:
An eye drop bottle's plug (tip) was packed with 0.1 g of p-HEMA particles for Timolol Maleate commercial formulation (Sandoz Inc.) and 0.1 g of p-HEMA/MAA particles for Bimatoprost commercial formation (Allegran Inc.). Approximately 0.5 mL of commercial formulation was dosed from the eye drop bottle for each measurement with 0.5 mL of a filtered formulation withdrawn by a standard 3 mL syringe for pendant drop measurements. A drop shape analysis was conducted by the Tensiometer to extract surface tension data of the filtered formulation. A calibration curve with equilibrium interfacial surface tension data as a function of BAK concentration was used to estimate concentrations and fractional BAK removal from the filtered eye drop formulation. Periodic surface tension measurements of the formulations were done to monitor fractional BAK removal.
The steady state Langmuir adsorption isotherm model and Langmuir surface equation of state were used to fit the equilibrium interfacial surface tension data are given below:
[formula] [formula] Where a least square error minimization protocol was used to fit the experimental equilibrium surface tension values and the calculated estimates using the above model. […] Benzalkonium Chloride Removal from Commercial Bimatoprost Formulation (Allegran Inc.)

The nature of series [5]: Partition and adsorption into pHEMA matrix (general statement).
The nature of series [6]: Partition coefficient of BAK in pHEMA particles prepared by heat-initiated polymerization.

Where a name gives a salt, the structure may show the parent alone. Marks after values point to notes of the source that are not given here.

Turning to `CCNC(=O)CCC/C=C\C[C@@H]1[C@@H](/C=C/[C@@H](O)CCc2ccccc2)[C@H](O)C[C@@H]1O` [Bimatoprost], in series [1], the “partitioning between gel and solution (in words)” value is given as “tends to remain in solution”.

The molecule `C[C@@H]1C[C@H]2[C@@H]3CCC4=CC(=O)C=C[C@]4(C)[C@@]3(F)[C@@H](O)C[C@]2(C)[C@@]1(O)C(=O)CO` [Dexamethasone, dexamethasone] showed a Partition coefficient in series [2] of 33.53 ± 1.31.

For `CCN[C@H]1C[C@H](C)S(=O)(=O)c2sc(S(N)(=O)=O)cc21` [Dorzolamide, dorzolamide hydrochloride], in series [2], the “partition coefficient, times smaller than that of BAK” value is on record as “roughly 15 times” and the Partition coefficient stood at 7.59 ± 0.56.

In the case of `CC(C)OC(=O)CCC/C=C\C[C@@H]1[C@@H](CC[C@@H](O)CCc2ccccc2)[C@H](O)C[C@@H]1O` [Latanoprost, latanoprost], in series [2], the Partition coefficient amounted to 90.18.

On to `CC(C)(C)NC[C@H](O)COc1nsnc1N1CCOCC1` [Timolol, timolol maleate], for which, in series [2], the “partition coefficient, times smaller than that of BAK” value is “roughly 15 times” and the Partition coefficient is on record as 6.49. For the same molecule, in series [3], the Partition coefficient was 5.59 ± 0.13^a.

Benzalkonium Chloride [BAK]: the “partitioning between gel and solution (in words)” value in series [1] is given as “strongly partitions into the gel”. In addition, the “maximum surface coverage Γ∞ (fit parameter)” value in series [4] was found to be 0.003309 mol/m^2. In addition, the “ratio of kinetic rate constants β/α (fit parameter)” value in series [4] came out at 462.14 m^3/mol. Moreover, the “adsorption time on pHEMA” value in series [5] (compared with transit time) is reported as less than 3 s. The “partition coefficient into pHEMA matrix” value in series [5] (depends on BAK concentration and structure of pHEMA matrix) is recorded as 100-500. The Partition coefficient in series [3] is roughly 300; in series [6], 200-250.
